For experiment [1], the system named is Human gastric cancer MKN1 cells. Description: MKN1 tumor model. The format is in vivo. To be noted: female BALB/c nude mice, p.o. 10, 20 and 30 mg/kg once daily, 22 days, Fig. 4. The protocol:
Human gastric cancer MKN1 cells were cultured in RPMI 1640 medium containing 10% FBS at 37 °C and 5% CO2 in an incubator. Matrigel was mixed with serum-free RPMI 1640 medium at a ratio of 1:1, and then the mixture was used to resuspend the MKN1 cancer cells at 1 × 10^7 / 0.1 ml. Then, the cells were inoculated subcutaneously into the right rib area of female BALB/c nude mice. When the volume of tumors reached approximately 100-150 mm^3, the mice were randomly divided into groups for treatment, with six animals per group. The compound was prepared in a 20% aqueous solution of hydroxypropyl-gamma-cyclodextrin containing an equivalent amount of hydrochloric acid, and administered by oral gavage (p.o.) at dosages of 10, 20, and 30 (mg/kg) once daily, for a total of 22 days. The untreated group was given solvent by oral gavage. The tumor volume was measured twice a week using a vernier caliper by measuring the long and short diameters of a tumor. The formula for calculating a tumor volume was: volume (mm^3) = (long diameter (mm) × short diameter (mm) × short diameter (mm)/2. The mice were weighed daily.
(§1) The therapeutic effect of a drug was evaluated using the tumor growth inhibition (TGI%).

Experiment [2] deals with human acute myeloid leukemia MV-4-11 cells. Description: Assay of cell proliferation (CellTiter-Glo). Type of experiment: cell-based. To be noted: MV4-11, 144 h, 6 days, read-out: MV-4-11 IC50 of cell proliferation inhibitory activity. In outline: (§2)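 Cells seeded per line at growth-adapted densities, treated 6 days at 37 °C/5% CO2 with nine 3-fold dilutions (10 µM to 0.1 nM final, 0.5% DMSO). Viability by CellTiter-Glo luminescence; IC50 from four-parameter fit.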
(In general: In ATP-based viability assays light output follows the ATP content of the culture.)

For experiment [3], the system named is human breast cancer HCC1806 cells. Description: Assay of cell proliferation (CellTiter-Glo). To be noted: Homo sapiens, 144 h, 6 days, read-out: HCC1806 IC50 of cell proliferation inhibitory activity. The format is cell-based. In outline:
as §2

Experiment [4] concerns human colon cancer HCT-116 cells. As to the kind of experiment: Assay of cell proliferation (CellTiter-Glo). The format is cell-based. To be noted: 144 h, 6 days, read-out: HCT-116 IC50 of cell proliferation inhibitory activity. In outline:
as §2

Experiment [5] deals with human breast cancer MCF-7 cells. As to the kind of experiment: Assay of cell proliferation (CellTiter-Glo). The format is cell-based. To be noted: 144 h, MCF7 cells, 6 days, read-out: MCF7 IC50 of cell proliferation inhibitory activity. In outline: as §2
The subject of experiment [6] is human gastric cancer MKN1 cells. As to the kind of experiment: Assay of cell proliferation (CellTiter-Glo). The format is cell-based. To be noted: Homo sapiens, MKN-1, 144 h; MNK1, 6 days; read-out: MKN1 IC50 of cell proliferation inhibitory activity. The method in brief:
as §2

The subject of experiment [7] is Human ovarian cancer OVCAR3 cells. As to the kind of experiment: Assay of cell proliferation (CellTiter-Glo). The format is cell-based. To be noted: Homo sapiens, OVCAR-3, 144 h, 6 days, read-out: OVCAR3 IC50 of cell proliferation inhibitory activity. In outline: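 OVCAR3 cells, 2000/well in RPMI 1640 with 20% FBS, treated with nine 3-fold dilutions from 10 µM to 0.1 nM (0.5% DMSO) for 6 days at 37 °C. Viability by CellTiter-Glo luminescence; IC50 by four-parameter fit.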

The subject of experiment [8] is Human ovarian cancer OVCAR-3 cells. Description: OVCAR-3 tumor model. To be noted: female NOD-SCID mice, p.o. 5, 10 and 15 mg/kg twice daily, 22 days, Fig. 3. Type of experiment: in vivo. The protocol:
Human ovarian cancer OVCAR-3 cells were cultured in RPMI 1640 medium containing 20% FBS at 37 °C and 5% CO2 in an incubator. Matrigel was mixed with serum-free RPMI 1640 medium at a ratio of 1:1, and then the mixture was used to resuspend the OVCAR-3 cancer cells at 2 × 10^7 cells/0.2 ml. Then, the cells were inoculated subcutaneously into the right rib area of female NOD-SCID mice. When the volume of tumors reached approximately 100-150 mm^3, the mice were randomly divided into groups for treatment, with six animals per group. The compound of example I-10 was prepared in a 20% aqueous solution of hydroxypropyl-gamma-cyclodextrin containing an equivalent amount of hydrochloric acid, and administered by oral gavage (p.o.) at dosages of 5, 10, and 15 (mg/kg) twice daily, 8 hours apart, for a total of 22 days. The PF06873600 treatment group was used as a positive control, and the untreated group was given solvent by oral gavage. The tumor volume was measured twice a week using a vernier caliper by measuring the long and short diameters of a tumor. The formula for calculating a tumor volume was: volume (mm^3) = (long diameter (mm) × short diameter (mm) × short diameter (mm)/2. The mice were weighed daily.
as §1

For the compound `CC(C)n1nnc2ccc3cnc(Nc4ccc(C(=O)N5CC[C@H](N(C)C)C5)cc4)nc3c21` [Example I-10, (S)-(3-(Dimethylamino)pyrrolidin-1-yl)(4-((1-isopropyl-1H-[1,2,3]triazolo[4,5-H]quinazolin-8-yl)amino)phenyl)metha none], the “growth inhibitory effect on the MKN1 tumor model (TGI%)” value in experiment [1] is listed as “dose-dependent relationship”. Further, the IC50 in experiment [2] is 4 nM; in experiment [3] it was 22 nM; in experiment [4], 11 nM; in experiment [5] it was 11 nM; in experiment [6] it was 15 nM; in experiment [7], 16 nM. Moreover, in experiment [8], the “growth inhibitory effect on the OVCAR-3 tumor model (TGI%)” value is recorded as “dose-dependent relationship”.

For the origin of these results see patent EP4711369A1, “1H-[1,2,3]TRIAZOLO[4,5-H]QUINAZOLINE COMPOUNDS AS PROTEIN KINASE INHIBITORS” (Chengdu Cynogen Bio-Pharmaceutical Technology Co., Ltd., priority 2023, dated 2024).
